These results are taken from patent publication US20240156764A1, “INHIBITION OF URACIL DNA GLYCOSYLASE IN THE OPEN CONFORMATION” (CASE WESTERN RESERVE UNIVERSITY, priority 2022, published 2024).

Where only a bound is given, the exact number is not on record here.

The assay concerns the target human UDG (Homo sapiens, UniProt P13051). Nature of the assay: Microscale thermophoresis (MST) binding. The arrangement: Bacterially expressed and purified full-length human UDG; made in house. How it is done: The data for thermophoresis was recorded at 20° C. using the blue LED at 20% and IR-Laser at 40%. The isotherm derived from the raw data and fitted according to the law of mass action. […] Then 2 μL of 10× Sypro dye and 2 μL of ddH20 (Applied biosystems cat #4461141) were added. Monitoring of fluorescence took place for 2 hr (Bioraid CFX96, Hex filter, 25-97° C., 1.6° C./2 min). Negative (−) derivative RFU raw data and plots from the machine were obtained and analyzed. […] Melting temperature (Tm) value was taken directly from the midpoint on the −dRFU/dt vs. temperature graph. Each point on the graph represents an average of three data sets. Y error bars represent the standard deviation.
Bacterially expressed and purified full-length human UDG was fluorescently labeled with Atto488 NHS ester according to the manufacturer's protocol. […] The samples were loaded into silica premium capillaries (Polymicro Technologies) after incubation at room temperature for 15 min measurements were performed at 20° C., by using 20% LED power and 40% IR-laser power. Measurements were also carried out on 40 and 60% IR-Laser power for comparison. The raw data were exported to GraphPad Prism8 software, KD value was obtained by data fitting with a one-site specific binding model.
A general note: In MST a laser heats a spot of the sample, and binding alters the fluorescence response.

human UDG, sequence (P13051 whole entry): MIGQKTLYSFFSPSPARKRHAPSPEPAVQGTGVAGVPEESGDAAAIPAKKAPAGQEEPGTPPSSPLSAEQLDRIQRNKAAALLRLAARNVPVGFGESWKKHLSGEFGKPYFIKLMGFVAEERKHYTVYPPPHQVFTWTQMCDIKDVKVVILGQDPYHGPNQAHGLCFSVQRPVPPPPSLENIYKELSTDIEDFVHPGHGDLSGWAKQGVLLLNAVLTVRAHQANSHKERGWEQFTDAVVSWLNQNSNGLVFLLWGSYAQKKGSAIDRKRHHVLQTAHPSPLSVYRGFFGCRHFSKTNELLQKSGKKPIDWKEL

In the case of `N.N.N.O=C(O)C1=CC(=C(c2ccc(O)c(C(=O)O)c2)c2ccc(O)c(C(=O)O)c2)C=CC1=O` [ATA NH4 salt], the Kd (as a rule, the constant that tells how readily two partners part at equilibrium) (MST, 100 nM labelled UDG, estimated, read-out: binding dissociation constant (KD)) is under 0.7 µM. In addition, the “direct binding to the purified human UDG protein” value (more soluble ATA NH4 salt form) was “significant improvement in direct binding”.
